In patent publication US20260250320A1, “LIPIDATED PEPTIDE INHIBITORS OF INTERLEUKIN-23 RECEPTOR” (Janssen Pharmaceutica NV, priority 2023, published 2026):
*1 amine or outer side, *2 acyl side, *3 side chain or, on linkers, in order; H or OH if unused. Where a SMILES comes first, the peptide text is derived from it. Bridges are numbered along the chain shown (N, C = ends). Side-chain parts run from the residue outwards. [ ]: non-standard residue; d: D form. The star is where a group is joined. X23 = CN(CCOCCOCC(=O)N(C)CCOCCOCC(=O)*)C(=O)CC[C@H](C(=O)O)N(C)C(=O)CCCCCCCCCCCCCCCCC(=O)O; Me3N+(CH2)2O(CH2)2O(CH2)2CO = C[N+](C)(C)CCOCCOCCC(=O)*; Trp(7-Me) = Cc1cccc2c(C[C@H](N)C(=O)O)c[nH]c12; Hexanoyl(6-NMe3+) = C[N+](C)(C)CCCCCC(=O)*; C18 diacid = O=C(O)CCCCCCCCCCCCCCCCC(=O)*; γGlu = O=C(O)[C@H](CCC(=O)[*:2])N[*:1]; 2Nal = N[C@@H](Cc1ccc2ccccc2c1)C(=O)O; AEF = NCCOc1ccc(C[C@H](N)C(=O)O)cc1; X2 = C[N+](C)(C)C[C@@H](CC(=O)O)N*; 3Pal = N[C@@H](Cc1cccnc1)C(=O)O; Lys(Me) = CNCCCC[C@H](N)C(=O)O; NMeK = CN[C@@H](CCCCN)C(=O)O; Pen = CC(C)(S)[C@H](N)C(=O)O; Suc = O=C(CCC(=O)[*:2])[*:1]; Thp = NC1(C(=O)O)CCOCC1; AEEA = NCCOCCOCC(=O)O; Sar = CNCC(=O)O

What was measured:
IL-23R = target: T1, IL-23R (Homo sapiens, UniProt Q5VWK5); test: IL23R Reporter Assay; format: cell-based; details: HEK293 cells containing IL-23R, IL-12Rβ1 and STAT-inducible firefly luciferase reporter; 10 ng/mL IL-23 (EC90); 5 h
T1 construct: HEK293 cells containing IL-23R, IL-12Rβ1 and a firefly luciferase reporter gene driven by a STAT-inducible promoter (Promega); host or cells: HEK293
T1 sequence (Q5VWK5 24-629): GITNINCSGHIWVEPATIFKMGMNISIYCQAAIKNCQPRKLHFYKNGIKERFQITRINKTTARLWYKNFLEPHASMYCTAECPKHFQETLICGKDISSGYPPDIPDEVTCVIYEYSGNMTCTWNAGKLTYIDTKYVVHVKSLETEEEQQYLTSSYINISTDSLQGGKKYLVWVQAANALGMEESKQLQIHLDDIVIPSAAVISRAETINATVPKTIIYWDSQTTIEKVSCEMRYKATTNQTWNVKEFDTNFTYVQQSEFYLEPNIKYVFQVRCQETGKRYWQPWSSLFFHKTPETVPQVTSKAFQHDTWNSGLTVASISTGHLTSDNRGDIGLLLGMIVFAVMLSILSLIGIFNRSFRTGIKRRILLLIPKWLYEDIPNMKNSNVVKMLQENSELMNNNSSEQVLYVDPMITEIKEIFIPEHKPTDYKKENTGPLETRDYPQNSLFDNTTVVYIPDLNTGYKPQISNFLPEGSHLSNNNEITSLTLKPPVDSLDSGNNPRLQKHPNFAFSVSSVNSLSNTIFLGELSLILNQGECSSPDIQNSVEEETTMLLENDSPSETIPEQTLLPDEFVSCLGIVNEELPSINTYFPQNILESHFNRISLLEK
Outline: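 IC50 values were fitted with a 4-parameter Hill equation to luciferase signal, scaled between IL-23-only wells (0% inhibition) and 30 μM reference inhibitor (100%). The readout was a STAT-inducible reporter in IL-23R/IL-12Rβ1 HEK293 cells, stimulated with added 10 ng/mL IL-23 (EC90) for 5 h at 37° C and developed with BioGlo.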

[1] = system: IL-23-stimulated phosphorylated STAT3 in peripheral blood mononuclear cells (PBMCs); test: PBMC pSTAT3 Assay; format: cell-based; details: PBMCs from healthy donors; 30 min preincubation with peptide; IL-23 5 ng/mL for 30 min; phospho-STAT3 by MSD
Outline: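 Phospho-STAT3 quantified by Meso Scale assay in lysates of PBMCs exposed to IL-23 (5 ng/mL, 30 min, 37 °C) after 30 min peptide pretreatment. Cells were cryopreserved donor PBMCs activated 4 days with anti-CD3 plus IL-1β (100 ng/mL) and starved ~4 h; IC50 reported.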

| Structure (SMILES) | IC50 (IL-23R) [nM] | IC50 [1] [nM] |
| --- | --- | --- |
| CC(=O)NCCCC[C@@H]1NC(=O)[C@H](Cc2c[nH]c3c(C)cccc23)NC(=O)[C@H]([C@@H](C)O)NC(=O)[C@H](CCCCNC(=O)COCCOCCNC(=O)COCCOCCNC(=O)CC[C@H](NC(=O)CCCCCCCCCCCCCCCCC(=O)O)C(=O)O)NC(=O)[C@@H](NC(=O)[C@@H](CCCNC(=N)N)NC(=O)CCCCC[N+](C)(C)C)C(C)(C)SSC(C)(C)[C@@H](C(=O)N[C@@H](Cc2ccc(OCCN)cc2)C(=O)N[C@@H](Cc2ccc3ccccc3c2)C(=O)NC2(C(=O)N[C@@H](CCC(=O)O)C(=O)N[C@@H](CC(N)=O)C(=O)N[C@@H](Cc3cccnc3)C(=O)N(C)CC(N)=O)CCOCC2)NC1=O [compound 73, 5cpaCO-r-Pen(3)-K(PEG2PEG2gEC18OH)-T-7MeW-K(Ac)-Pen(3)-AEF-2Nal-THP-E-N-3Pya-Sar-CONH2] ({Hexanoyl(6-NMe3+)}-[dR][Pen]K([AEEA-AEEA-γGlu-C18 diacid])T[Trp(7-Me)]K(Ac)[Pen][AEF][2Nal][Thp]EN[3Pal][Sar]-NH2; disulfide 2-7) | 50 to 500 | < 0.5 |
| CC(=O)NCCCC[C@@H]1NC(=O)[C@H](Cc2c[nH]c3c(C)cccc23)NC(=O)[C@H]([C@@H](C)O)NC(=O)[C@H](CC(N)=O)NC(=O)[C@@H](NC(=O)[C@@H](CCCNC(=N)N)NC(=O)CCC(=O)N[C@H](CC(=O)O)C[N+](C)(C)C)C(C)(C)SSC(C)(C)[C@@H](C(=O)N[C@@H](Cc2ccc(OCCN)cc2)C(=O)N[C@@H](Cc2ccc3ccccc3c2)C(=O)NC2(C(=O)N[C@@H](CCC(=O)O)C(=O)N[C@@H](CC(N)=O)C(=O)N[C@@H](Cc3cccnc3)C(=O)N(C)CC(=O)N[C@@H](CCCCNC(=O)COCCOCCNC(=O)COCCOCCNC(=O)CC[C@H](NC(=O)CCCCCCCCCCCCCCCCC(=O)O)C(=O)O)C(N)=O)CCOCC2)NC1=O [compound 54, succiniccarn-r-Pen(3)-N-T-7MeW-K(Ac)-Pen(3)-AEF-2Nal-THP-E-N-3Pya-Sar-K(PEG2PEG2gEC18OH)-CONH2] ({X2-Suc}-[dR][Pen]NT[Trp(7-Me)]K(Ac)[Pen][AEF][2Nal][Thp]EN[3Pal][Sar]K([AEEA-AEEA-γGlu-C18 diacid])-NH2; disulfide 2-7) | 50 to 500 | < 0.5 |
| CC(=O)NCCCC[C@@H]1NC(=O)[C@H](Cc2c[nH]c3c(C)cccc23)NC(=O)[C@H]([C@@H](C)O)NC(=O)[C@H](CC(N)=O)NC(=O)[C@@H](NC(=O)[C@@H](CCCCNC(=O)COCCOCCNC(=O)COCCOCCNC(=O)CC[C@H](NC(=O)CCCCCCCCCCCCCCCCC(=O)O)C(=O)O)NC(C)=O)C(C)(C)SSC(C)(C)[C@@H](C(=O)N[C@@H](Cc2ccc(OCCN)cc2)C(=O)N[C@@H](Cc2ccc3ccccc3c2)C(=O)NC2(C(=O)N[C@@H](CCCCNC(=O)CCC(=O)N[C@H](CC(=O)O)C[N+](C)(C)C)C(=O)N[C@@H](CC(N)=O)C(=O)N[C@@H](Cc3cccnc3)C(=O)N(C)CC(N)=O)CCOCC2)NC1=O [compound 33, MeCO-k(PEG2PEG2gEC18OH)-Pen(3)-N-T-7MeW-K(Ac)-Pen(3)-AEF-2Nal-THP-K(d)-N-3Pya-Sar-CONH2] (Ac-[dK]([AEEA-AEEA-γGlu-C18 diacid])[Pen]NT[Trp(7-Me)]K(Ac)[Pen][AEF][2Nal][Thp]K([Suc-X2])N[3Pal][Sar]-NH2; disulfide 2-7) | < 50 | < 0.5 |

The next lines start with results.

| IC50 (IL-23R) [nM] | Structure (SMILES) | IC50 [1] [nM] |
| --- | --- | --- |
| 50 to 500 | CC(=O)N(C)CCCC[C@@H]1NC(=O)[C@H](CC2=CCc3c(C)cccc32)NC(=O)[C@H]([C@@H](C)O)NC(=O)[C@H](CC(=O)N(C)C)NC(=O)[C@@H](NC(=O)CCOCCOCC[N+](C)(C)C)C(C)(C)SSC(C)(C)C(CN[C@@H](Cc2ccc(OCCNC(=O)C[N+](C)(C)CCNC(=O)CCOCCOCCOCCOCCOCCOCCNC(=O)CC[C@H](CC(=O)CCCCCCCCCCCCCCCCCCC(=O)O)C(=O)O)cc2)C(=O)N[C@@H](Cc2ccc3ccccc3c2)C(=O)NC2(C(=O)N[C@@H](CCCCN(C)C(C)=O)C(=O)N[C@@H](CC(N)=O)C(=O)N[C@@H](Cc3cccnc3)C(C)N(C)CC(=O)N(C)C)CCOCC2)NC1=O (stereo partly drawn) [compound 140, cPEG3aCO-Pen(3)-N(N(Me)2)-T-7MeW-K(NMeAc)-Pen(3)-AEF(SP6PEG6gEC20OH)-2Nal-THP-K(NMeAc)-N-3Pya-Sar-CON(Me)2] | < 0.5 |
| < 50 | CC(=O)NCCCC[C@@H]1NC(=O)[C@H](Cc2c[nH]c3c(C)cccc23)NC(=O)[C@H]([C@@H](C)O)NC(=O)[C@H](CC(N)=O)NC(=O)[C@@H](NC(=O)COCCOCCNC(=O)COCCOCCNC(=O)CC[C@H](NC(=O)CCCCCCCCCCCCCCCCC(=O)O)C(=O)O)C(C)(C)SSC(C)(C)[C@@H](C(=O)N[C@@H](Cc2ccc(OCCN)cc2)C(=O)N[C@@H](Cc2ccc3ccccc3c2)C(=O)NC2(C(=O)N[C@@H](CCC(=O)O)C(=O)N[C@@H](CC(N)=O)C(=O)N[C@@H](Cc3cccnc3)C(=O)N(C)CC(N)=O)CCOCC2)NC1=O [compound 61, HOC18gEPEG2PEG2CO-Pen(3)-N-T-7MeW-K(Ac)-Pen(3)-AEF-2Nal-THP-E-N-3Pya-Sar-CONH2] | < 0.5 |
| 50 to 500 | CC(=O)NCCCC[C@@H]1NC(=O)[C@H](Cc2c[nH]c3c(C)cccc23)NC(=O)[C@H]([C@@H](C)O)NC(=O)[C@H](CC(N)=O)NC(=O)[C@@H](NC(=O)[C@@H](CCCNC(=N)N)NC(C)=O)C(C)(C)SSC(C)(C)[C@@H](C(=O)N[C@@H](Cc2ccc(OCCN)cc2)C(=O)N[C@@H](Cc2ccc3ccccc3c2)C(=O)NC2(C(=O)N[C@@H](CCC(=O)O)C(=O)N[C@@H](CC(N)=O)C(=O)N[C@@H](Cc3cccnc3)C(=O)N(C)[C@@H](CCCCNC(=O)COCCOCCN(C)C(=O)COCCOCCN(C)C(=O)CC[C@H](C(=O)O)N(C)C(=O)CCCCCCCCCCCCCCCCC(=O)O)C(N)=O)CCOCC2)NC1=O [compound 80, MeCO-r-Pen(3)-N-T-7MeW-K(Ac)-Pen(3)-AEF-2Nal-THP-E-N-3Pya-NMeK(PEG2NMePEG2NMegENMeC18OH)-CONH2] (Ac-[dR][Pen]NT[Trp(7-Me)]K(Ac)[Pen][AEF][2Nal][Thp]EN[3Pal][NMeK](X23)-NH2; disulfide 2-7) | < 0.5 |
| < 50 | CC(=O)N[C@H](CCCNC(=N)N)C(=O)N[C@@H]1C(=O)N[C@@H](CCCCNC(=O)COCCOCCNC(=O)COCCOCCNC(=O)CC[C@H](NC(=O)CCCCCCCCCCCCCCCCC(=O)O)C(=O)O)C(=O)N[C@@H]([C@@H](C)O)C(=O)N[C@@H](Cc2c[nH]c3c(C)cccc23)C(=O)N[C@@H](CCCCN(C)C(=O)CCOCCOCC[N+](C)(C)C)C(=O)N[C@H](C(=O)N[C@@H](Cc2ccc(OCCN)cc2)C(=O)N[C@@H](Cc2ccc3ccccc3c2)C(=O)NC2(C(=O)N[C@@H](CCC(=O)O)C(=O)N[C@@H](CC(N)=O)C(=O)N[C@@H](Cc3cccnc3)C(=O)N(C)CC(N)=O)CCOCC2)C(C)(C)SSC1(C)C [compound 76, MeCO-r-Pen(3)-K(PEG2PEG2gEC18OH)-T-7MeW-K(NMecPEG3a)-Pen(3)-AEF-2Nal-THP-E-N-3Pya-Sar-CONH2] (Ac-[dR][Pen]K([AEEA-AEEA-γGlu-C18 diacid])T[Trp(7-Me)][Lys(Me)](Me3N+(CH2)2O(CH2)2O(CH2)2CO)[Pen][AEF][2Nal][Thp]EN[3Pal][Sar]-NH2; disulfide 2-7) | < 0.5 |
